Article PMC6916368, “Cell‐Based Optimization of Covalent Reversible Ketoamide Inhibitors Bridging the Unprimed to the Primed Site of the Proteasome β5 Subunit” (Chemmedchem, 2019)

Tests used:
[1] = target: T1, β2c subunit of isolated human 20S proteasome (Homo sapiens, UniProt Q99436); experiment: Proteasome inhibition assay (20 S Proteasome Assay Kit, Bz‐VGR‐AMC); type: biochemical; details: c = 1 µM, n=1; read-out: Inhibition cCP β2
T1 construct: purchased Enzo Life Sciences
In short: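 Isolated 20S proteasome (200 ng/well) was preincubated 30 min with inhibitor, then Bz-VGR-AMC (100 μM final) was added for 60 min and fluorescence read. Single-point residual activity was taken at 100 nM or 1 μM; IC50 was fitted from duplicates, mean of three independent experiments.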

[2] = target: T2, β1c subunit of isolated human 20S proteasome (Homo sapiens, UniProt P28072); experiment: Proteasome inhibition assay (20 S Proteasome Assay Kit, Z‐LLE‐AMC); type: biochemical; details: c = 1 µM, n=1; read-out: Inhibition cCP β1
T2 construct: purchased Enzo Life Sciences
In short: (§1)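 Isolated human 20S proteasome (200 ng/well) preincubated 30 min with inhibitor, then 100 μM final Suc-LLVY-AMC (β5c, β5i) or Z-LLE-AMC (β1c) added for 60 min; fluorescence read. Residual activity at 100 nM final (n=3; β5c, β5i) or 1 μM (n=1, incl. β1c). IC50s: technical duplicates, mean of three experiments.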

[3] = target: T3, β5i subunit of isolated human 20S proteasome (Homo sapiens, UniProt P28062); experiment: Proteasome inhibition assay (20 S Proteasome Assay Kit, Suc‐LLVY‐AMC); type: biochemical; details: for inhibition at 1 µM: c = 1 µM, n=1, read-out: Inhibition iCP β5; for inhibition at 0.1 µM: c=100 nM, read-out: Rel. Inhibition β5i; for IC50: purified proteasome
T3 construct: purchased Enzo Life Sciences
In short: as §1

[4] = target: T4, β5c subunit of isolated human 20S proteasome (Homo sapiens, UniProt P28074); experiment: as above; type: biochemical; details: for inhibition at 1 µM: c = 1 µM, n=1, read-out: Inhibition cCP β5; for inhibition at 0.1 µM: c=100 nM, read-out: Rel. Inhibition β5c; for IC50: purified proteasome; for Fold‐IC50 β5i/β5c: selectivity β5c over β5i
T4 construct: purchased Enzo Life Sciences
In short: as §1

THP‐1 cells [5] = type: cell-based
Protocol: (§2) Remarkably, in THP‐1 cells the initial cytotoxicity is increasing for 3 compared to 27 until 14 h treatment (9‐fold) but is approaching to the end of the assay.
(§3) Time‐dependent determination of cell viability. For the determination of time‐dependent cytotoxic activity 5.000 cells per well were plated in a white 384 well‐plate in RPMI‐1640 medium supplemented with 0.1 % FBS. Real‐Time Glo MT cell viability assay (Promega) and inhibitor were added to the final concentration and luminescence was determined using a Tecan M1000 microplate reader at the time points indicated (SI chapter 2b, Figure S9–S17, Table S2).

MV4‐11 cells = experiment: Cell viability endpoint assay (Celltiter Blue, 72 h); type: cell-based; details: Homo sapiens, MV4-11, mean±SD from two independent experiments
In short: (§4)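 Proteasome inhibitors were tested at 1 nM to 10 μM final on 50.000 cells/well in RPMI-1640 with 0.1 % FBS, plated overnight beforehand, at 37 °C and 5 % CO2. Reagent was incubated 120 minutes before the fluorescence read. IC50 came from a sigmoidal fit of technical triplicates, as the mean of two independent experiments.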

THP‐1 cells [6] = experiment: as above; type: cell-based; details: Homo sapiens, mean±SD from two independent experiments
In short: as §4

Jurkat cells = experiment: as above; type: cell-based; details: Homo sapiens, mean±SD from two independent experiments
In short: as §4

Danio rerio embryos = experiment: Danio rerio embryo toxicity assay (not dechorionated); type: in vivo
Protocol: Danio rerio embryo toxicity assay. Fish keeping protocols are approved by the Darmstadt administrative authority and documented. All fish were treated humanely. […] Embryos were decollated into separate wells containing a total volume of 200 μL and the inhibitor at the given concentration.

in vitro = type: cell-based; details: human
Protocol: as §2, §3

[7] = system: proteasome in MV4‐11 cells; experiment: In‐cell determination of proteasome IC50 (conversion of substrate 30); type: cell-based; details: MV4-11, without pre‐incubation
Protocol: In‐cell determination of proteasome IC 50. […] Substrate was added to give a final concentration of 30 μM and substrate conversion was detected by fluorescence measurement over 100 min (assay validation) or 60 min (inhibition assays) using a Tecan M1000 microplate reader. Rate of fluorescence change over time was calculated, rates for negative (no‐cell) control was subtracted and normalized to positive control (no inhibitor).

Compound | inhibition at 1 µM [1] | inhibition at 1 µM [2] | inhibition at 1 µM [3] | inhibition at 0.1 µM [3] | inhibition at 1 µM [4] | inhibition at 0.1 µM [4] | IC50 (MV4‐11 cells) | IC50 (THP‐1 cells [6]) | IC50 (Jurkat cells) | Survival of embryos (not dechorionated) (Danio rerio embryos; 1 µM, 24 h) | Survival of embryos (not dechorionated) (Danio rerio embryos; 1 µM, 48 h) | Survival of embryos (not dechorionated) (Danio rerio embryos; 1 µM, 72 h) | Survival of embryos (not dechorionated) (Danio rerio embryos; 1 µM, 96 h) | Survival of embryos (not dechorionated) (Danio rerio embryos; 5 µM, 24 h) | Survival of embryos (not dechorionated) (Danio rerio embryos; 5 µM, 48 h) | Survival of embryos (not dechorionated) (Danio rerio embryos; 5 µM, 72 h) | Survival of embryos (not dechorionated) (Danio rerio embryos; 5 µM, 96 h) | Survival of embryos (not dechorionated) (Danio rerio embryos; 10 µM, 24 h) | Survival of embryos (not dechorionated) (Danio rerio embryos; 10 µM, 48 h) | Survival of embryos (not dechorionated) (Danio rerio embryos; 10 µM, 72 h) | also measured
CC(C)C[C@H](NC(=O)[C@H](CCc1ccccc1)NC(=O)CN1CCOCC1)C(=O)N[C@@H](Cc1ccccc1)C(=O)N[C@@H](CC(C)C)C(=O)[C@@]1(C)CO1 [Carfilzomib 3, Carfilzomib] | 37% | -18% | 91% | 43% | 96% | 86% | 0.0036 ± 0.0018 µM | 0.135 ± 0.039 µM | 0.014 ± 0.003 µM | 100% | 100% | 100% | 100% | 100% | 100% | 100% | 100% | 100% | 100% | 100% | cytotoxicity of 3 compared to 27 (THP‐1 cells [5]): 9 fold; Survival of embryos (not dechorionated) (Danio rerio embryos; 10 µM, 96 h): 100%; Survival of embryos (not dechorionated) (Danio rerio embryos; 25 µM, 24 h): 100%; Survival of embryos (not dechorionated) (Danio rerio embryos; 25 µM, 48 h): 100%; Survival of embryos (not dechorionated) (Danio rerio embryos; 25 µM, 72 h): 100%; Survival of embryos (not dechorionated) (Danio rerio embryos; 25 µM, 96 h): 100%; IC50 at 13 h (in vitro): 0.05 to 0.4 µM
CC(C)C[C@H](NC(=O)OCc1ccccc1)C(=O)N[C@@H](CC(C)C)C(=O)N[C@@H](CC(C)C)C(=O)C(=O)Nc1cccc(Oc2ccccc2)c1 [Compound 9, Benzyl‐((S)‐4‐methyl‐1‐(((S)‐4‐methyl‐1‐(((S)‐5‐methyl‐1,2‐dioxo‐1‐((3‐phenoxyphenyl)‐amino)hexan‐3‐yl)amino)‐1‐oxopentan‐2‐yl)amino)‐1‐oxopentan‐2‐yl)carbamate] | 9% | 0% | 31% | 23% | 81% | 56% | 0.018 ± 0.003 µM | 0.03 ± 0.01 µM | 0.024 ± 0.004 µM | 100% | 100% | 100% | 100% | 100% | 100% | 100% | 100% | 100% | 100% | 100% | IC50 [3]: 0.17 µM; IC50 [4]: 0.066 µM; Fold‐IC50 β5i/β5c [4]: 2.6; Survival of embryos (not dechorionated) (Danio rerio embryos; 10 µM, 96 h): 100%; Survival of embryos (not dechorionated) (Danio rerio embryos; 25 µM, 24 h): 100%; Survival of embryos (not dechorionated) (Danio rerio embryos; 25 µM, 48 h): 100%; Survival of embryos (not dechorionated) (Danio rerio embryos; 25 µM, 72 h): 100%; Survival of embryos (not dechorionated) (Danio rerio embryos; 25 µM, 96 h): 100%
Cc1ccc(NC(=O)C(=O)C(CC(C)C)NC(=O)C(CC(C)C)NC(=O)C(CC(C)C)NC(=O)OCc2ccccc2)c(C)c1 (stereo not drawn) [Compound 7, BSc4999] | 9% | -26% | 74% | 33% | 92% | 64% | 0.019 ± 0.003 µM | 0.024 ± 0.0001 µM | 0.03 ± 0.0003 µM | 100% | 100% | 100% | 100% | 100% | 100% | 100% | 100% | 100% | 100% | 100% | IC50 [3]: 0.204 µM; IC50 [4]: 0.048 µM; Fold‐IC50 β5i/β5c [4]: 4.3; fold more potent than 9 (in-cell conversion of 30) [7]: 4 fold; Survival of embryos (not dechorionated) (Danio rerio embryos; 10 µM, 96 h): 100%; Survival of embryos (not dechorionated) (Danio rerio embryos; 25 µM, 24 h): 80%; Survival of embryos (not dechorionated) (Danio rerio embryos; 25 µM, 48 h): 80%; Survival of embryos (not dechorionated) (Danio rerio embryos; 25 µM, 72 h): 80%; Survival of embryos (not dechorionated) (Danio rerio embryos; 25 µM, 96 h): 80%
